Measurements published in a melting point compilation (Tetko et al.; mined from patent text by program, amines drawn as free bases though some values may be those of a salt).

| Compound | melting point [°C] |
| --- | --- |
| O=C1CCC(N2C(=O)c3cccc(NC(=O)COCc4ccccc4)c3C2=O)C(=O)N1 (centres undefined) | 204 to 206 |
| O=C1C(=Cc2ccncc2)CCc2cc(OCCn3ccnc3)ccc21 | 128 to 129 |
| Clc1nsnc1-c1cccnc1 | 48 to 49 |
| CC(C)(Br)C(=O)NOCc1ccccc1 | 88.6 to 91.1 |
| COc1ccc(-c2onc3ccc(Br)cc23)cc1 | 137 |
| Cn1nc2n(c1=O)-c1ccc(Cl)cc1C(c1ccccc1F)=CC2 | 142 to 143 |
| NC1=NS(=O)(=O)Nc2cccc(OCC3(NC(=O)c4ccncc4)CCCC3)c21 | > 250 |
| O=c1oc2c([N+](=O)[O-])c(O)c(O)cc2cc1-c1ccccc1 | 195 to 210 |
| CCCCc1ccc(C2(O)CN3CCC2CC3)o1 (centres undefined) | 94 to 96 |
| CCCc1c(OCCCOc2ccc3c(=O)cc(-c4ccc(C(=O)O)cc4)oc3c2CCC)ccc(C(C)=O)c1O | 226 to 228 |
| O=C(Nc1ccccc1)c1ccccn1 | 75 to 77 |
| O=C1c2ccccc2C(=O)N1CCCOc1cccc2c(O)nccc12 | > 300 |
| COc1nn(C(=S)Oc2ccccc2)c(=O)n1N | 158 |
| N#Cc1ccc(Cl)cc1NC(CCO)c1ccccc1 (centres undefined) | 88 to 90 |
| Cn1nc(-c2c(F)cccc2Cl)nc1-c1ccc([N+](=O)[O-])cc1Cl | 144 to 148 |
| OC1(C2=NCCCN2)c2ccccc2-c2ccccc21 | 242 to 245 |
| CCOc1cccc(CC(=O)O)c1OCCn1cc(C(=O)NCc2ccc(Cl)cc2Cl)c(OC(C)C)n1 | 90 to 91 |
| CCn1c(=O)c2c(nc(/C=C/c3ccc(OC)c(C)c3)n2C)n(CC)c1=O | 176 to 178 |
| CC(C)(C)OC(=O)n1cnc2c(N)cccc21 | 117 |
| Cc1coc(NC(=O)C2=C(O)c3c(c4ccccc4n3C)S(=O)(=O)N2C)n1 | 128 |
| CCOC(=O)C1(NC(=O)OCc2ccccc2)CC(=O)NC1=O (centres undefined) | 105 to 106 |
| CC(=O)NC[C@H]1CN(c2ccc(-c3ncns3)c(F)c2)C(=O)O1 | 199 to 200 |
| CN(C)C1CCC(Nc2nc3cc(Cl)c(Cl)cc3nc2-c2cccnc2)CC1 (centres undefined) | 158 to 161 |
| Cc1cccc(C)c1-n1cnc(NCC(F)(F)F)nc1=O | 212 to 213 |
| CC(C)(C)NS(=O)(=O)c1cn(CCOC2CCCCO2)c2ccccc12 (centres undefined) | 125 to 132 |

| Compound | melting point [°C] |
| --- | --- |
| Cn1c(=O)n(CCCC(NS(=O)(=O)c2ccc(-c3ccc(Cl)cc3)cc2)C(=O)O)c(=O)c2ccccc21 (centres undefined) | 188 to 191 |
| Cc1cn(C2CC(O[Si](C)(C)C(C)(C)C)C(CO)O2)c(=O)[nH]c1=O (centres undefined) | 93 to 95 |
| CCOC(=O)C1=C(C)NC(C#N)=C(C(=O)OCC)C1c1ccccc1C(=O)OC (centres undefined) | 126 to 127 |
| CC(=O)O[C@@H]1CN2C(=O)N(c3cc(Cl)cc(Cl)c3)C(=O)[C@]2(Cc2ccc(Br)cc2)C1 | 150 |
| CCOc1cccc(C(O)c2ncccc2OC)c1 (centres undefined) | 104 to 106 |
| Cc1cc2c(cc1CN1CCN(C)CC1)-c1[nH]nc(-c3ccsc3)c1C2 | 210 to 212 |
| Cc1noc(C)c1S(=O)(=O)n1c(COC(C)C(=O)O)cc2cc(Cl)ccc21 (centres undefined) | 110 to 112 |
| CC(C)(C)c1ccc(C2C=C(c3ccccc3)NN2c2ccccc2)cc1 (centres undefined) | 150 to 153 |
| CC1(C)CC(=C(c2ccc(F)cc2)c2ccc(OCC#N)cc2)CC(C)(C)C1 | 100 to 101 |
| Cc1c(F)c(F)nc(-c2ccc(C(F)(F)F)cc2)c1F | 52 |
| Cc1cc(-c2cccc(-c3ccc(OCC(=O)O)c4c3CCCC4)n2)c(C)[nH]1 | 199 to 206 |
| CO[C@@H]1CC[C@@H](NC(N)=O)c2ccccc21 (relative stereo) | 159 to 165 |
| CCOc1ccc(F)c(N=Cc2cnc(SC)nc2NC2CCCC2)c1F | 136 to 141 |
| COc1ccc(Nc2ccc3cc(O)ccc3c2)cc1 | 152 to 153 |
| CCCCN(CCCc1coc2c(OC)cccc12)C1COc2c(F)ccc(C(N)=O)c2C1 (centres undefined) | 110 to 117 |
| N#Cc1ccc(-c2ccc3cnc(Nc4ccc(N5CCOCC5)cc4)nn23)cn1 | 280 to 283 |
| Nc1ccc(-c2ncc(Br)cn2)c([N+](=O)[O-])c1 | 165 to 167 |
| NCCOc1cc(Cl)cc([N+](=O)[O-])c1N | 156 to 157 |
| O=C(O)COc1ccc(SCc2cc(-c3ccc(Cl)cc3)on2)c2c1CCC2 | 112 to 114 |
| CCC(C)C(NC(=O)C(C)N(C(=O)OC(C)(C)C)C1CCCCC1)C(=O)NC(CC1CCCCC1)C(O)C(O)CC(C)C (centres undefined) | 181 to 182 |
| COc1ccc(-c2cc(C=O)c3occc3c2)cc1 | 94 to 95 |
| CC1CCC(Oc2cc(F)cc(C(=O)Nc3ccc(OCCN4CCOCC4)c4ccccc34)c2)C1 (centres undefined) | 65 to 66 |
| Cc1cc(F)c(Nc2ncnc3cc(NC(=O)CCN4CCOCC4)ccc23)cc1O | 228 to 233 |
| C[C@H](NC(=O)OCc1ccccc1)C(=O)Nc1ccc(S(N)(=O)=O)cc1 | 245 to 246 |
